Experimental data published in paper PMC3858552, “The discovery of potent ribosomal S6 kinase inhibitors by high-throughput screening and structure-guided drug design” (Oncotarget, 2013).
Read-outs that look alike come from different tables or passages of the source. Each block holds one compound with its values, some of them ahead of it.

Key:
[1] = biological target: T1, S6K1 (Homo sapiens, UniProt P23443, T412E); assay: S6K1 DELFIA phosphorylation assay (IC50 of screening hits); format: biochemical; settings: for LE (ligand efficiency): calculated using the mean IC50 values; for IC50: repurchased samples
T1 construct: The His-tagged kinase domain of S6K1 (residues 1-421, catalogue number 14-486) used in the HTS; His; purchased Millipore (Upstate/Millipore) 14-486
Description: For primary screening hits, IC50 values were determined using a DELFIA® assay that monitors phosphorylation of a S6 peptide using a specific phospho-antibody. The enzyme reaction was carried out in 96 well polypropylene plates (#650261; Greiner Bio-One, Frickenhausen, Germany).
For each compound, a 10mM stock was diluted in water resulting in a 1250 μM solution in 12.5% (v/v) DMSO. Compounds were manually diluted 1 in 3 in 12.5% (v/v) DMSO to give an eight point dilution curve in duplicate. Finally, 5 μL compound solution or 12.5% (v/v) DMSO was transferred to the assay plate resulting in compound assay concentrations of 0.12-250 μM.
Subsequently, 20 μL of reaction reagents were added to the assay plate resulting in final assay concentrations of 1 μM S6 peptide (biotin-[…], synthesised by J. Metcalfe, ICR), 2 nM S6K1 (#14-486; Millipore, Billerica, MA, USA) and 30 μM ATP in assay buffer consisting of 40 mM HEPES pH 7.4, 10 mM MgCl2, 1 mM DTT and 0.02% (v/v) Tween 20. The reaction was incubated for an hour at 37 °C and stopped by the addition of 125 μL buffer comprising 40 mM EDTA, 0.05% (v/v) Tween 20, 0.1% (w/v) BSA in TBS (10x concentrate, Sigma-Aldrich, Gillingham, UK). A 100 μL aliquot of the reaction solution was transferred to a black neutravidin-coated plate (#15117; Perbio/Thermo Scientific, Cramlington, UK) and incubated for an hour on a Titertek shaker (Flow Laboratories, Sutton, UK) at room temperature. The plates were washed four times with WellWash4 wash buffer (Thermo Life Sciences Ltd, Basingstoke, UK) containing 25 mM Tris pH 8, 150 mM NaCl and 0.1% (v/v) Tween 20 and incubated for an hour with 100 μL of an antibody mix consisting of 0.05 nM of an anti-phospho S6 antibody (#2211; Cell Signalling Technology) and 0.18 μg/mL of an europium-labelled anti-rabbit IgG, (#AD0105; PerkinElmer Life Sciences, Waltham, MA, USA) diluted in DELFIA assay buffer (#4002-0010; PerkinElmer Life Sciences). The plates were washed a further four times with WellWash4 wash buffer (Thermo Life Sciences) before the addition of 100 μL Enhancement Solution (#4001-0010; PerkinElmer Life Sciences). The plate was read on an EnVision® 2103 Multilabel Reader (PerkinElmer Life Sciences) using a time-resolved measurement mode reading fluorescence at 615 nm. IC50 values were calculated from a four-parameter logistics fit of percentage inhibition versus concentration using GraphPad Prism 5 (GraphPad Software, Inc., CA, USA).

[2] = biological target: S6K1 (Homo sapiens, UniProt P23443); assay: S6K1 mobility shift (microfluidic) assay; format: biochemical; settings: for LE (ligand efficiency): calculated using the mean IC50 values; for activity against S6K1 (in words): benzimidazole / azabenzimidazole oxadiazoles
Description: For all compounds from the benzimidazole oxadiazole/azabenzimidazole oxadiazole series, the IC50 values were determined using a microfluidic assay that monitors the separation of a phosphorylated product from its substrate. […] For each compound, a 10 mM stock concentration in 100% DMSO was used.
IC50 values were calculated from a four-parameter logistics fit of percentage inhibition versus concentration using GraphPad Prism 5 (GraphPad Software, Inc., CA, USA).

[3] = biological target: S6K2 (Homo sapiens, UniProt Q9UBS0); assay: S6K2 inhibition; format: biochemical
[4] = test system: HCV29 human bladder carcinoma cells; assay: Sulforhodamine B proliferation assay (GI50); format: cell-based; settings: HCV-29, 96 hours continuous exposure, read-out: GI50 (50% tumour growth inhibition)
Description: (§1) The human bladder carcinoma cell line HCV29 was obtained from Dr Richard Lamb (University of Liverpool, UK). This cell line has elevated mTORC1 and S6K activity through loss of TSC1 [46] as a result of a missense mutation and TSC2 loss that was confirmed by immunoblotting (data not shown). Cells were cultured in RPMI (Invitrogen, Life Technologies Ltd, Paisley, UK) containing 2 mmol/L glutamine (Invitrogen), and supplemented with non-essential amino acids (Invitrogen) 10% fetal bovine serum (PAA Laboratories Ltd, Yeovil, UK) in 5% CO2 in air at 37 °C. GI50 values (concentrations) causing 50% inhibition of proliferation for tumour cells were determined using a sulforhodamine B assay. Electrochemiluminescent immunoassays (Meso Scale Discovery, Rockville, MD, USA) measuring the inhibition of phosphorylation of RPS6-ser235/236, AKT-Thr308, AKT-Ser473, GSK3b-Ser9 and S6K-Ser421/424 were carried out as described in Raynaud et al..

[5] = test system: RPS6-ser235/236; assay: Electrochemiluminescent ELISA, RPS6 Ser235/236 phosphorylation in intact cells; format: cell-based; settings: Homo sapiens, HCV-29; HCV29 intact cells, 2 hours exposure, n=3; read-out: EC50 for 50% inhibition of RPS6 Ser235/236 phosphorylation
Description: as §1

[6] = test system: AKT-Thr308; assay: Electrochemiluminescent ELISA, AKT-Thr308 phosphorylation in intact cells; format: cell-based; settings: Homo sapiens, electrochemoluminescent ELISA
Description: as §1

[7] = test system: AKT-Ser473; assay: Electrochemiluminescent ELISA, AKT-Ser473 phosphorylation in intact cells; format: cell-based; settings: Homo sapiens, electrochemoluminescent ELISA
Description: as §1

[8] = test system: GSK3b-Ser9; assay: Electrochemiluminescent ELISA, GSK3b-Ser9 phosphorylation in intact cells; format: cell-based; settings: Homo sapiens, electrochemoluminescent ELISA
Description: as §1

[9] = test system: S6K-Ser421/424; assay: Electrochemiluminescent ELISA, S6K-Ser421/424 phosphorylation in intact cells; format: cell-based; settings: Homo sapiens, electrochemoluminescent ELISA
Description: as §1

[10] = Table 2, confirmation DELFIA assay, mean ± standard error, duplicate
[11] = Table 3, confirmation DELFIA assay, mean ± standard error, duplicate
[12] = Table 4, mobility shift assay, mean ± SD triplicate, or duplicate/single measurement as footnoted, read-out: S6K1 IC50
[13] = Table 5, mobility shift assay, mean ± SD triplicate, or single measurement as footnoted, read-out: S6K1 IC50
[14] = Table 6, mobility shift assay, mean ± SD triplicate, or duplicate ± SE / single measurement as footnoted, read-out: S6K1 IC50

Chain of S6K1 (Homo sapiens, UniProt P23443) (P23443 1-421): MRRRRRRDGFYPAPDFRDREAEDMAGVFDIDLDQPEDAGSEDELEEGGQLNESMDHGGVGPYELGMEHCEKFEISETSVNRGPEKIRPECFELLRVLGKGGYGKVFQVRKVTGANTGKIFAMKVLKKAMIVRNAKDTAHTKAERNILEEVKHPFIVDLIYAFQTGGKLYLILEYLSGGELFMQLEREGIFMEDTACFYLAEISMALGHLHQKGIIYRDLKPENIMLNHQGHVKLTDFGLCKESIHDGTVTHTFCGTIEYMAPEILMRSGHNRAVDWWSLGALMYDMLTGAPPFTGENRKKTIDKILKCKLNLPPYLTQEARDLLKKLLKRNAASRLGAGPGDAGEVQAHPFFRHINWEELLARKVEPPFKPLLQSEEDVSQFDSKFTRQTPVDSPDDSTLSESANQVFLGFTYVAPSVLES
T1 sequence (P23443 1-421 T412E limits assumed): as the sequence (P23443 1-421) above, with T412E counted along it
Chain of S6K2 (Q9UBS0 whole entry): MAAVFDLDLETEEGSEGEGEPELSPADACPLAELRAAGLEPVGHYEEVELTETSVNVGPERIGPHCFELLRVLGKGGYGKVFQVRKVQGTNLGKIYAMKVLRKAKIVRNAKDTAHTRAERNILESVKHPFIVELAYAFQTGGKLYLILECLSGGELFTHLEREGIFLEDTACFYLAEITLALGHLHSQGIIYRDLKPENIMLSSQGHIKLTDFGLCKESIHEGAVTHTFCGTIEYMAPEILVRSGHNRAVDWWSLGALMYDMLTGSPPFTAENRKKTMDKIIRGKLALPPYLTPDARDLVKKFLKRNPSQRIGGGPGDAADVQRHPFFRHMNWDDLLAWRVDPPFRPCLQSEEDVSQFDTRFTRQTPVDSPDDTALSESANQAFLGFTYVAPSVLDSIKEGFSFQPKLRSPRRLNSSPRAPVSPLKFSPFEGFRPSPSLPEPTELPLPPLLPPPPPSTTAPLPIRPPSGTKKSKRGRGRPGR

SMILES: O=c1c2ccccc2nc(-c2cccnc2)n1-c1ccc(Br)cn1 [Compound 7]
LE (ligand efficiency) ([1]; Table 2): 0.38 | IC50 [1, 10]: 260 ± 150 nM

SMILES: Cc1ccc(-n2c(-c3ccccn3)nc3ccccc3c2=O)cc1 [Compound 8]
LE (ligand efficiency) ([1]; Table 2): 0.33 | IC50 [1, 10]: 1550 ± 920 nM

SMILES: O=c1c2ccccc2nc(-c2ccccn2)n1-c1ccccc1 [Compound 9]
LE (ligand efficiency) ([1]; Table 2): 0.33 | IC50 [1, 10]: 2970 ± 1530 nM

LE (ligand efficiency) ([1]; Table 3): 0.50 | IC50 [1, 11]: 340 ± 140 nM
SMILES: CC(C)n1c(-c2nonc2N)nc2ccccc21 [Compound 10]

IC50 ([1]; HTS hits): 7000 nM | LE (ligand efficiency) ([1]; Table 3): 0.40 | IC50 [1, 11]: 6980 ± 2070 nM
SMILES: C=CCn1c(-c2nonc2N)nc2ccccc21 [Compound 11]

LE (ligand efficiency) ([2]; Table 4): 0.58 | IC50 [2, 12]: 194 nM | activity against S6K1 (in words) [2]: about six-fold less active
SMILES: Cn1c(-c2nonc2N)nc2ccccc21 [Compound 15a, 4-(1-Methyl-1H-benzoimidazol-2-yl)-1,2,5-oxadiazole-3-ylamine]

LE (ligand efficiency) ([2]; Table 4): 0.59 | IC50 [2, 12]: 59.8 ± 32.4 nM
SMILES: CCn1c(-c2nonc2N)nc2ccccc21 [Compound 15b, 4-(1-Ethyl-1H-benzoimidazol-2-yl)-1,2,5-oxadiazole-3-ylamine]

LE (ligand efficiency) ([2]; Table 4): 0.57 | IC50 [2, 12]: 36.6 ± 7 nM
SMILES: Nc1nonc1-c1nc2ccccc2n1C1CC1 [Compound 15c, 4-(1-Cyclopropyl-1H-benzoimidazol-2-yl)-1,2,5-oxadiazole-3-ylamine]

SMILES: Nc1nonc1-c1nc2ccccc2n1Cc1ccccc1 [Compound 15d, 4-(1-Benzyl-1H-benzoimidazol-2-yl)-1,2,5-oxadiazole-3-ylamine]
IC50 [2, 12]: > 100000 nM | activity against S6K1 (in words) [2]: complete loss of biochemical activity

LE (ligand efficiency) ([2]; Table 4): 0.56 | IC50 [2, 12]: 19.8 nM
SMILES: Nc1nonc1-c1nc2ccccc2n1CC1CC1 [Compound 15e, 4-(1-Cyclopropylmethyl-1H-benzoimidazol-2-yl)-1,2,5-oxadiazole-3-ylamine]

SMILES: CC(=O)Nc1nonc1-c1nc2ccccc2n1C1CC1 [Compound 16, N-[4-(1-Cyclopropyl-1H-benzoimidazol->2-yl)-1,2,5-oxadiazole-3-yl]-acetamide]
IC50 ([2]; acetylated aminooxadiazole, read-out: S6K IC50): > 100000 nM

SMILES: CCn1c(-c2nonc2N)nc2cc(Br)ccc21 [Compound 20a, 3-Amino-4-(5-bromo-1-ethyl-1H-benzimidazol-2-yl)-1,2,5-oxadiazole]
LE (ligand efficiency) ([2]; Table 5): 0.55 | IC50 [2, 13]: 66.4 ± 5.6 nM

SMILES: CCn1c(-c2nonc2N)nc2cc(-c3ccccc3)ccc21 [Compound 20b, 3-Amino-4-(1-ethyl-5-phenyl-1H-benzimidazol-2-yl)-1,2,5-oxadiazole]
LE (ligand efficiency) ([2]; Table 5): 0.35 | IC50 [2, 13]: 1640 ± 530 nM

SMILES: CCn1c(-c2nonc2N)nc2cc(C3CC3)ccc21 [Compound 20c, 3-Amino-4-(5-cyclopropyl-1-ethyl-1H-benzimidazol-2-yl)-1,2,5-oxadiazole]
LE (ligand efficiency) ([2]; Table 5): 0.45 | IC50 [2, 13]: 334 ± 25.1 nM

SMILES: CCn1c(-c2nonc2N)nc2cc(OC)ccc21 [Compound 20d, 3-Amino-4-(1-ethyl-5-methoxy-1H-benzimidazol-2-yl)-1,2,5-oxadiazole]
LE (ligand efficiency) ([2]; Table 5): 0.52 | IC50 [2, 13]: 63.4 nM

SMILES: CCn1c(-c2nonc2N)nc2cc(NC)ccc21 [Compound 20e, 3-Amino-4-(1-ethyl-5-methylamino-1H-benzimidazol-2-yl)-1,2,5-oxadiazole]
LE (ligand efficiency) ([2]; Table 5): 0.50 | IC50 [2, 13]: 148 nM

SMILES: CCn1c(-c2nonc2N)nc2cccc(Br)c21 [Compound 20f, 3-Amino-4-(7-bromo-1-ethyl-1H-benzimidazol-2-yl)-1,2,5-oxadiazole]
LE (ligand efficiency) ([2]; Table 5): 0.50 | IC50 [2, 13]: 303 ± 21 nM

SMILES: CCn1c(-c2nonc2N)nc2cccc(-c3cccnc3)c21 [Compound 20g, 3-Amino-4-(7-(3-pyridinyl)-1-ethyl-1H-benzimidazol-2-yl)-1,2,5-oxadiazole]
LE (ligand efficiency) ([2]; Table 5): 0.39 | IC50 [2, 13]: 352 ± 173 nM

SMILES: CCn1c(-c2nonc2N)nc2cnc(Br)cc21 [Compound 21a, 3-Amino-4-(6-bromo-1-ethyl-1H-imidazo[4,5-c]pyridin-2-yl)-1,2,5-oxadiazole]
LE (ligand efficiency) ([2]; Table 6): 0.59 | IC50 [2, 14]: 19.7 ± 2.6 nM

SMILES: CCn1c(-c2nonc2N)nc2cnc(Oc3cccc(S(C)(=O)=O)c3)cc21 [Compound 21b, 4-[1-Ethyl-6-(3-methanesulfonyl-phenoxy)-1H-imidazo[4,5-c]pyridin-2-yl]-1,2,5-oxadiazole-3-ylamine]
LE (ligand efficiency) ([2]; Table 6): 0.34 | IC50 [2, 14]: 103 ± 23 nM

SMILES: CCn1c(-c2nonc2N)nc2cnc(-c3ccccc3)cc21 [Compound 21c, 4-(1-Ethyl-6-phenyl-1H-imidazo[4,5-c]pyridin-2-yl)-1,2,5-oxadiazole-3-ylamine]
IC50 [2, 14]: > 100000 nM | activity against S6K1 (in words) [2]: abolished all affinity for S6K1

SMILES: CCn1c(-c2nonc2N)nc2cnc(N3CCOCC3)cc21 [Compound 21d, 4-(1-Ethyl-6-morpholin-4-yl-1H-imidazo[4,5-c]pyridin-2-yl)-1,2,5-oxadiazole-3-ylamine]
LE (ligand efficiency) ([2]; Table 6): 0.42 | IC50 [2, 14]: 110 nM

SMILES: CCn1c(-c2nonc2N)nc2cnc(C)cc21 [Compound 21e, 4-(1-Ethyl-6-methyl-1H-imidazo[4,5-c]pyridin-2-yl)-1,2,5-oxadiazole-3-ylamine]
ligand efficiency [2]: 0.6 | LE (ligand efficiency) ([2]; Table 6): 0.60 | IC50 [2, 14]: 17.4 ± 6 nM | IC50 [3]: 300 ± 102 nM | GI50 [4]: 3500 nM | EC50 [5]: 9100 ± 1500 nM | IC50 [6]: > 15000 nM | IC50 [7]: > 15000 nM | IC50 [8]: > 15000 nM | IC50 [9]: > 15000 nM
